Results taken from PubChem BioAssay AID248 (DTP/NCI, 2004).
Where “and” joins values, the source holds several entries; their conditions need not be identical. Identical values can stand only once. Toxic doses and inconclusive results are not listed. No stated cut-off is given here; in the data, active means T/C of 150% or more; inactive means T/C below 125%.

System: L1210 leukemia ip in BDF1 mice, survival T/C
Assay: NCI In Vivo Anticancer Drug Screen. Data for tumor model L1210 Leukemia (intraperitoneal) in B6D2F1 (BDF1) mice
Details: endpoint: mean survival time, higher = longer survival
In short: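 Mice bearing the transplanted tumor received compound or vehicle. Survival of the treated group was divided by that of the vehicle-treated control group to give the ratio.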

[1] = dose: 50.0 mg/kg/injection, schedule: Q01DX009 (ip), vehicle: saline
[2] = dose: 100.0 mg/kg/injection, schedule: Q01DX001 (ip), vehicle: Klucel (hydroxypropylcellulose) (HPC)
[3] = dose: 100.0 mg/kg/injection, schedule: Q01DX009 (ip), vehicle: Klucel (hydroxypropylcellulose) (HPC)
[4] = dose: 200.0 mg/kg/injection, schedule: Q01DX009 (ip), vehicle: Klucel (hydroxypropylcellulose) (HPC)
[5] = dose: 400.0 mg/kg/injection, schedule: Q01DX009 (ip), vehicle: Klucel (hydroxypropylcellulose) (HPC)
[6] = dose: 200.0 mg/kg/injection, schedule: Q04DX003 (ip), vehicle: saline with Tween-80
[7] = dose: 400.0 mg/kg/injection, schedule: Q04DX003 (ip), vehicle: saline with Tween-80
[8] = dose: 100.0 mg/kg/injection, schedule: Q01DX009 (ip), vehicle: saline with Tween-80
[9] = dose: 12.5 mg/kg/injection, schedule: Q01DX009 (ip), vehicle: saline
[10] = dose: 25.0 mg/kg/injection, schedule: Q01DX009 (ip), vehicle: saline
[11] = dose: 100.0 mg/kg/injection, schedule: Q04DX003 (ip), vehicle: saline with Tween-80
[12] = dose: 100.0 mg/kg/injection, schedule: Q04DX003 (ip), vehicle: Klucel (hydroxypropylcellulose) (HPC)
[13] = dose: 200.0 mg/kg/injection, schedule: Q04DX003 (ip), vehicle: Klucel (hydroxypropylcellulose) (HPC)
[14] = dose: 400.0 mg/kg/injection, schedule: Q04DX003 (ip), vehicle: Klucel (hydroxypropylcellulose) (HPC)

Measured: T/C

C[C@]12CCC(=O)C=C1CC[C@@H]1[C@@H]2[C@@H](O)C[C@@]2(C)[C@H]1CC[C@]2(C)O
inactive: [1] 91 % of control | dose: 100.0 mg/kg/injection, schedule: Q01DX009 (ip), vehicle: saline 97 % of control | dose: 200.0 mg/kg/injection, schedule: Q01DX009 (ip), vehicle: saline 102 % of control

Cc1nc(N)[nH]c(=O)c1CCCNC(=O)c1cccc([N+](=O)[O-])c1
inactive: dose: 50.0 mg/kg/injection, schedule: Q01DX001 (ip), vehicle: Klucel (hydroxypropylcellulose) (HPC) 108 % of control | [2] 114 % of control

O=C(Nc1ccccc1C(F)(F)F)Nc1cccc2c(O)cccc12
inactive: dose: 100.0 mg/kg/injection, schedule: Q01DX001 (ip), vehicle: carboxymethylcellulose (CMC) 93 % of control and 100 % of control | dose: 100.0 mg/kg/injection, schedule: Q01DX009 (ip), vehicle: carboxymethylcellulose (CMC) 100 % of control and 91 % of control | dose: 100.0 mg/kg/injection, schedule: Q04DX002 (ip), vehicle: carboxymethylcellulose (CMC) 86 % of control | dose: 100.0 mg/kg/injection, schedule: Q04DX003 (ip), vehicle: carboxymethylcellulose (CMC) 88 % of control and 91 % of control | dose: 200.0 mg/kg/injection, schedule: Q01DX001 (ip), vehicle: carboxymethylcellulose (CMC) 93 % of control and 89 % of control | dose: 200.0 mg/kg/injection, schedule: Q01DX009 (ip), vehicle: carboxymethylcellulose (CMC) 100 % of control and 103 % of control | dose: 200.0 mg/kg/injection, schedule: Q04DX002 (ip), vehicle: carboxymethylcellulose (CMC) 96 % of control and 89 % of control | dose: 200.0 mg/kg/injection, schedule: Q04DX003 (ip), vehicle: carboxymethylcellulose (CMC) 97 % of control and 88 % of control | dose: 400.0 mg/kg/injection, schedule: Q01DX001 (ip), vehicle: carboxymethylcellulose (CMC) 94 % of control and 90 % of control | dose: 400.0 mg/kg/injection, schedule: Q01DX009 (ip), vehicle: carboxymethylcellulose (CMC) 96 % of control and 91 % of control | dose: 400.0 mg/kg/injection, schedule: Q04DX002 (ip), vehicle: carboxymethylcellulose (CMC) 89 % of control and 90 % of control | dose: 400.0 mg/kg/injection, schedule: Q04DX003 (ip), vehicle: carboxymethylcellulose (CMC) 97 % of control and 88 % of control

Cc1ccc(-c2nnc(-c3ccccc3)n2-c2cc(C(=O)O)ccc2C)cc1
inactive: [2] 89 % of control | [3] 91 % of control | dose: 200.0 mg/kg/injection, schedule: Q01DX001 (ip), vehicle: Klucel (hydroxypropylcellulose) (HPC) 91 % of control | [4] 98 % of control | dose: 400.0 mg/kg/injection, schedule: Q01DX001 (ip), vehicle: Klucel (hydroxypropylcellulose) (HPC) 97 % of control | [5] 98 % of control

CC(=O)CC(=O)NCCNC(=O)CC(C)=O
inactive: dose: 100.0 mg/kg/injection, schedule: Q04DX003 (ip), vehicle: saline 101 % of control | dose: 200.0 mg/kg/injection, schedule: Q04DX003 (ip), vehicle: saline 100 % of control | dose: 400.0 mg/kg/injection, schedule: Q04DX003 (ip), vehicle: saline 100 % of control

CC(=O)Oc1c(OC(C)=O)c(-c2c(C)cc(C)c(Br)c2C)c(OC(C)=O)c(OC(C)=O)c1-c1c(C)cc(C)c(Br)c1C
inactive: [3] 103 % of control | [4] 97 % of control | [5] 103 % of control

Cc1cc([N+](=O)[O-])cc(Br)c1N
inactive: [6] 93 % of control | [7] 91 % of control

Cc1ccnc(NS(=O)(=O)c2ccc(N)cc2)n1
inactive: dose: 100.0 mg/kg/injection, schedule: Q04DX002 (ip), vehicle: saline with Tween-80 93 % of control | dose: 200.0 mg/kg/injection, schedule: Q04DX002 (ip), vehicle: saline with Tween-80 101 % of control | dose: 400.0 mg/kg/injection, schedule: Q04DX002 (ip), vehicle: saline with Tween-80 93 % of control

O=C(Nc1ncc(S(=O)(=O)c2ccc([N+](=O)[O-])cc2)s1)C(F)(F)F
inactive: [8] 94 % of control | dose: 200.0 mg/kg/injection, schedule: Q01DX009 (ip), vehicle: saline with Tween-80 99 % of control

O=c1[nH]c2cc(Cl)c(Cl)cc2o1
inactive: dose: 19.0 mg/kg/injection, schedule: Q01DX Z (ip), vehicle: carboxymethylcellulose (CMC) 95 % of control | dose: 37.5 mg/kg/injection, schedule: Q01DX Z (ip), vehicle: carboxymethylcellulose (CMC) 95 % of control | dose: 75.0 mg/kg/injection, schedule: Q01DX Z (ip), vehicle: carboxymethylcellulose (CMC) 96 % of control | [3] 93 % of control | dose: 100.0 mg/kg/injection, schedule: Q04DX003 (ip), vehicle: other 102 % of control | [4] 93 % of control | dose: 200.0 mg/kg/injection, schedule: Q04DX003 (ip), vehicle: other 95 % of control | dose: 400.0 mg/kg/injection, schedule: Q04DX003 (ip), vehicle: other 97 % of control

CCC1=[N+](C)C(C)(C)CC(C)O1 (stereo not drawn)
inactive: dose: 6.25 mg/kg/injection, schedule: Q01DX009 (ip), vehicle: saline 102 % of control | dose: 6.25 mg/kg/injection, schedule: Q04DX003 (ip), vehicle: saline with Tween-80 98 % of control | [9] 102 % of control | dose: 12.5 mg/kg/injection, schedule: Q04DX003 (ip), vehicle: saline with Tween-80 94 % of control | [10] 107 % of control | dose: 25.0 mg/kg/injection, schedule: Q04DX003 (ip), vehicle: saline with Tween-80 94 % of control | [1] 102 % of control | dose: 50.0 mg/kg/injection, schedule: Q04DX003 (ip), vehicle: saline with Tween-80 94 % of control and 95 % of control

C1=CCOCOC1
inactive: dose: 12.5 mg/kg/injection, schedule: Q01DX009 (ip), vehicle: saline with Tween-80 97 % of control | dose: 25.0 mg/kg/injection, schedule: Q01DX009 (ip), vehicle: saline with Tween-80 94 % of control | dose: 50.0 mg/kg/injection, schedule: Q01DX009 (ip), vehicle: saline with Tween-80 97 % of control | [8] 113 % of control

O=C(O)CCOc1ccc(Cl)cc1
inactive: [11] 106 % of control | [6] 103 % of control | [7] 95 % of control

O=S(=O)(CCCl)c1ccccc1
inactive: [12] 103 % of control | [11] 92 % of control | [13] 97 % of control | [6] 92 % of control | [14] 94 % of control | [7] 97 % of control

Nc1ncnc2c1c(I)cn2C1OC(CO)C(O)C1O (stereo not drawn)
inactive: dose: 5.0 mg/kg/injection, schedule: Q01DX001 (ip), vehicle: saline 102 % of control | dose: 10.0 mg/kg/injection, schedule: Q01DX001 (ip), vehicle: saline 101 % of control | dose: 20.0 mg/kg/injection, schedule: Q01DX001 (ip), vehicle: saline 103 % of control | dose: 40.0 mg/kg/injection, schedule: Q01DX001 (ip), vehicle: saline 105 % of control

Fc1ccc2[nH]c3c(c2c1)CP(c1ccccc1)CC3 (stereo not drawn)
inactive: [12] 100 % of control | [13] 96 % of control | [14] 105 % of control

CC(C)(C)C1CC(C(F)(F)F)(C(F)(F)F)OS(=O)O1 (stereo not drawn)
inactive: [9] 96 % of control | dose: 12.5 mg/kg/injection, schedule: Q04DX003 (ip), vehicle: saline 102 % of control | [10] 94 % of control | dose: 25.0 mg/kg/injection, schedule: Q04DX003 (ip), vehicle: saline 91 % of control | [1] 100 % of control | dose: 50.0 mg/kg/injection, schedule: Q04DX003 (ip), vehicle: saline 94 % of control
